Our source for the IC50 values is ChEMBL document CHEMBL1201862, “PubChem BioAssay data set” (2004).

Molecules are shown by their SMILES. Activity calls are given as the source filed them. Cut-off read from the data, not from the text of the source: actives have a measured IC50 and inactives only a lower limit.

For the assay, the target named is Envelope glycoprotein gp160 (Human immunodeficiency virus 1, UniProt Q6QLK5). The experiment in a line: inhibitors of HIV fusion peptide binding, primary screen, biochemical, uHTS, fluorescence dequenching (AID 1986).
Sequence of Envelope glycoprotein gp160 (Q6QLK5 whole entry, the tested form may be a part): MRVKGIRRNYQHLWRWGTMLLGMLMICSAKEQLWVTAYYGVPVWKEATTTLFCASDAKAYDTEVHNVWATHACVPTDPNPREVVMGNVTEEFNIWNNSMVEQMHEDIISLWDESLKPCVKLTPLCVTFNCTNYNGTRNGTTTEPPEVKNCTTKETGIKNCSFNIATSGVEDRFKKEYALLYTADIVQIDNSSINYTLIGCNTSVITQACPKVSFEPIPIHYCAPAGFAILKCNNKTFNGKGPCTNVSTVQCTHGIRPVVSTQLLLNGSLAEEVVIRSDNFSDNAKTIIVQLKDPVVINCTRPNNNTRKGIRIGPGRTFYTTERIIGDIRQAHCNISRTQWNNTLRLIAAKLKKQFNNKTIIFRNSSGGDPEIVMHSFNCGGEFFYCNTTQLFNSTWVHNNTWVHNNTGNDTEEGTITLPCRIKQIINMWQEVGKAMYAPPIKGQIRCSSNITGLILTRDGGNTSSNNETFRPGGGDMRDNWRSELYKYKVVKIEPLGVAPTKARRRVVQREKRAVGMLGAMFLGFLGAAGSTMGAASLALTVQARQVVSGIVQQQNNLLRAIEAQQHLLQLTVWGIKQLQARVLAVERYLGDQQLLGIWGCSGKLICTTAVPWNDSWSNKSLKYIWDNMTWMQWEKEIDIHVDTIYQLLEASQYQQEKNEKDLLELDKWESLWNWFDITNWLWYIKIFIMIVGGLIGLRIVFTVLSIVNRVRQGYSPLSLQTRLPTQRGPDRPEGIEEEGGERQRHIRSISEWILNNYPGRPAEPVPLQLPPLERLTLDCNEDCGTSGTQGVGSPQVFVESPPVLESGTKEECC
Regarding `COc1cc(Cl)cc(C(c2c(C(=O)O)[nH]c3ccccc23)c2c(C(=O)O)[nH]c3ccccc23)c1O`, the 50% inhibitory concentration (IC50) (in general, the point on the concentration scale where inhibition reaches its midpoint) is 4.81 µM (active). The result for `O=C1N=C(NS(=O)(=O)c2ccccc2)S/C1=C\c1cc([N+](=O)[O-])ccc1O` reads 12.7 µM (active). The result for `CCS(=O)(=O)C1=NSC2=NC(=O)/C(=C\c3ccc(OS(=O)(=O)c4ccccc4)cc3)C(=N)N21` reads 19.9 µM (active); that for `N=C1/C(=C/c2ccc(-c3cccc(C(=O)O)c3)o2)C(=O)N=C2SC=C(c3ccccc3)N12`, 6.34 µM (active).

For `COc1cc(/C=C2\C(=N)N3N=C(S(C)(=O)=O)SC3=NC2=O)ccc1OS(=O)(=O)c1ccccc1`, the IC50 was 19.3 µM (active).
